Measured values: US20150359763A1, “USE OF 3-BROMOPYRUVATE AS A CONTRACEPTIVE” (Board of Regents of the Nevada System of Higher Education, …, priority 2013, published 2015)
Values joined by “and” are separate entries in the source; they are usually repeats but may differ in a detail not shown here. Equal values may be shown once. “Also recorded” adds a separate entry of the source. Read-outs that look alike come from different tables or passages of the source.

Legend:
[1] = test system: mouse cauda epididymal sperm; experiment: Mouse sperm motility in HTF with compound, measured by CASA; format: cell-based; details: for inhibition of sperm motility in vitro: HTF with 1 mM analog, 5 to 60 min; for development of sperm motility: incubated 30 min and 60 min
Procedure: Sperm motility requires energy, the sources of which include both glycolysis and mitochondrial activity. The effects of four glycolytic inhibitors (3-bromopyruvate, 2-deoxyglucose, lonidamin and oxythiamine) on sperm motility were evaluated. First mouse cauda epididymal sperm were collected into PBS, HTF (sperm-activating solution), HTF supplemented with 1 mM 3-Bromopyruvate, HTF containing 1 mM 2-Deoxyglucose, HTF with 0.5 mM Lonidamin and HTF with 1 MM Oxythiamine. Epididymal sperm can gain partial motility in PBS, but will never develop hyperactivated motility, which is required for sperm to be competent to fertilize eggs. On the other hand, when epididymal sperm are incubated in human tubular fluid (HTF) medium, which contains all of the sperm motility-activating factors, sperm will quickly develop hyperactivated motility and the motility peaks within 30 minutes and can last at least for several hours at 37° C. In the present studies, mouse cauda epididymal sperm were incubated in PBS, HTF and HTF supplemented with the 4 compounds for 30 min and 60 min. Sperm motility was then measured by Computer-Assisted Sperm Analysis (CASA). […] These studies indicate that in the presence of 3BP (at 1 mM), sperm cannot develop motility.
To determine how quickly 3BP could immobilize sperm, mouse cauda epididymal sperm were collected into HTF and HTF supplemented with 1 mM 3BP, respectively. Sperm were then incubated at 37° C. for 5, 10, 20 30, 40 and 60 min, respectively. Sperm motility was completely lost within 10 minutes at 1 mM concentration and the inhibitory effect appeared to be permanent (see FIG. 3).
Given that 3BP could immobilize sperm, it was determined if analogs of 3BP could have the same effect. Four 3BP analogs, including methyl-pyruvate, ethyl-pyruvate, isoamyl-pyruvate and propyl-pyruvate, were tested to determine if they also had the inhibitory effect on sperm in vitro. In the first study, the effects of methyl-pyruvate and ethyl-pyruvate on sperm motility were evaluated (FIG. 4A). Mouse epididymal sperm were collected into HTF (control), HTF containing 1 mM Methyl-pyruvate and HTF with 1 mM ethyl-pyruvate, respectively. After incubation at 37° C. for 5, 10, 20, 30, 40 and 60 min, sperm motility was measured using CASA.

[2] = test system: mouse epididymal sperm; experiment: EC50 and EC100 for immobilizing mouse sperm within 20 seconds of contact, CASA; format: cell-based
Procedure: (§1) To determine at what concentrations 3BP can block the motility of 50% and 100% of the total motile sperm, mouse epididymal sperm were collected into PBS (pH 7.5) and then transferred to pre-warmed (37° C.) HTF medium containing serial dilutions of 3BP (pH 7.5) at concentrations ranging from 10 to 130 mM with a 10 mM increment. Motility was measured using CASA upon 20 seconds of contact with 3BP. […] Therefore, the 3BP EC50 is ˜40˜50 mM and EC100 is ˜100 mM for mouse epididymal sperm at pH 7.5 (FIG. 9). Similarly, the EC50 and EC100 of 3BP in immobilizing human sperm were determined. Human “swim-up” sperm were added to HTF containing 3BP at increasing concentrations ranging from 100 mM to 210 mM at pH 7.5. Sperm motility was measured upon 20 seconds of contact using CASA. […] However, the vaginal environment tends to be acidic (˜pH 5.0) and the effectiveness of 3BP in immobilizing sperm was further evaluated when pH was set at ˜5.0 (FIGS. 10 and 12).

[3] = test system: mouse cauda epididymal sperm; experiment: Mouse sperm motility in HTF with compound, measured by CASA; format: cell-based; details: 1 mM 3BP, activated mouse sperm (HTF 30 minutes, 37° C.)
[4] = test system: sperm mitochondrial membrane potential; experiment: Sperm mitochondrial membrane potential, JC-1 assays; format: cell-based; details: 3BP 1 mM
Procedure: (§2) Whether 3BP could block mitochondrial activity in sperm was further examined because mitochondria also contribute energy production in sperm (FIG. 14). […] In control sperm trajectory tracking assays, the cauda epididymal sperm were collected into the HTF medium and incubated for 1, 5, 10 and 20 min (FIG. 15). In 3BP-treated sperm trajectory tracking assays, the cauda epididymal sperm were collected HTF+1 mM 3-BrPA and incubated for 1, 5, 10 and 20 min (FIG. 15). In control human sperm trajectory tracking assays, the human “swim-up” sperm were incubated HTF for 1, 5, 10, and 20 minutes (FIG. 16). In 3BP-treated human sperm movie clips, the human “swim-up” sperm were incubated in HTF+1 mM 3-BrPA for 1, 5, 10 and 20 minutes (FIG. 16). Further, the histology of the vagina and uterus in female mice that received daily intravaginal application of 3BP (200-400 ul lubricant containing 20 mM 3BP) for 3 months was accessed.

[5] = test system: vagina and uterus in female mice; experiment: Histology of vagina and uterus after daily intravaginal application; format: in vivo; details: daily intravaginal 200-400 ul lubricant containing 20 mM 3BP, 3 months
Procedure: as §2

[6] = test system: sperm ATP production; experiment: Sperm ATP content, Luciferase Bioluminescence Assay kit; format: cell-based; details: 1 mM 3BP, during 60 min activation by HTF
Procedure: The ATP production in sperm was measured with or without exposure to 1 mM 3BP during 60 min activation by HTF. Sperm ATP contents were measured using a Luciferase Bioluminescence Assay kit (FIG. 13). […] However, such a drastic suppression cannot be explained solely by its anti-glycolytic property because glycolysis provides only partial energy sperm motility requires.

[7] = test system: mouse cauda epididymal sperm; experiment: Permanence of sperm immobilization: exposure in PBS, wash, activation in HTF, CASA; format: cell-based; details: for motility developed in HTF after exposure and washing: PBS with 1 mM 3-BrPA, 1-30 min, washed twice, HTF 30 min and 60 min; for motility developed in HTF after exposure and washing / motility development after short exposure and washout: 37° C.; for motility development after short exposure and washout: 5 min, washed, HTF 30 and 60 minutes
Procedure: Studies were then performed to determine if sperm-immobilizing effects of 3BP were permanent or transient. Mouse cauda epididymal sperm were collected into PBS (control), PBS containing 1 mM 3BP, PBS containing 1 mM deoxyglucose, PBS with 0.5 mM lonidamine and PBS with 1 mM oxythiamine, followed by incubation at 37° C. for 5 min. The compounds were then washed away with PBS and then the treated sperm were incubated in HTF medium for 30 minutes and 60 minutes, followed by measurement of sperm motility by CASA. […] Again, 3BP had the strongest effects. […] These studies indicate that the sperm motility-abolishing effect of 3BP was permanent. Further, once exposed, sperm will never be able to develop motility.
To determine if sperm exposed to 3BP could still be activated in HTF, mouse sperm from the cauda epididymis were collected into PBS (control) and PBS containing 1 mM 3-BrPA, respectively. Then sperm were incubated in 37° C. for 1, 5, 10, 20 and 30 min, respectively. To remove 3BP, the sperm were washed twice with PBS. The sperm were then transferred to the HTF medium and activated for 30 min (FIG. 5, A) and 60 min (FIG. 5, B), followed by measurement the sperm motility using CASA.

[8] = test system: human "swim-up" sperm; experiment: EC50 and EC100 for immobilizing human sperm within 20 seconds of contact, CASA; format: cell-based; details: for EC50: read-out: EC50 (50% of motile sperm immobilized within 20 seconds of contact)
Procedure: as §1

[9] = test system: human "swim-up" sperm; experiment: Motility of human swim-up sperm exposed to 3BP, CASA; format: cell-based; details: 1 mM 3BP
Procedure: In normal men in their reproductive ages, ˜30-40% of sperm in human ejaculates are immotile or display weak motility. A ‘swim-up” procedure allows motile sperm to be enriched. To see the potential of 3BP in suppressing sperm motility, the swim-up procedure was first performed to allow the collection of motile sperm and then the motile human sperm were exposed to 3BP to determine if their motility could be abolished. The human semen was left at room temperature for 30 minutes for liquidification and then 2˜3 ml pre-warmed HTF medium were added followed by centrifugation at 1,500 rpm for 5 min. The sperm pellets were resuspended in 1 ml pre-warmed HTF medium and then incubated at 37° C. in anincubator for 60 min. Motile sperm will “swim up” and stay in the upper portion of the medium, in which motile sperm are enriched in. The “swim-up” sperm were collected, 3BP added at a concentration of 1 mM, and the sperm were incubated for 1, 5, 10, 20 and 30 min at 37° C., respectively. Sperm motility was then measured using CASA (FIG. 6).

[10] = test system: human semen; experiment: Sperm motility in liquidified human semen with 3BP; format: cell-based; details: 1 mM 3BP added directly to liquidified semen, 37° C.
Procedure: To evaluate the effect of 3BP on sperm motility in human semen, human semen was liquidified under room temperature and 3BP was directly added into the liquidified semen at a concentration of 1 mM followed by incubation at 37° C. for 1, 5, 10, 20 and 30 minutes (FIGS. 7 and 8). These studies indicate that 3BP can completely abolish human sperm motility within 5 minutes of contact.

## CC(=O)C(=O)OCCC(C)C [isoamyl-pyruvate]
[1]; 37° C.
  inhibition of sperm motility in vitro: no effect on sperm motility

## CCOC(=O)C(C)=O [ethyl-pyruvate]
[1]; 37° C.
  inhibition of sperm motility in vitro: None of the treatments resulted in inhibition of sperm motility
[1]; 37° C., listed as ethyl pyruvate
  inhibition of sperm motility in vitro: no effect on sperm motility

## O=C(O)C(=O)CBr [3BP, 3-bromo-2-oxopropanoic acid]
[2]; pH 4.8
  EC100 (100% of motile sperm immobilized within 20 seconds of contact): ~17 mM
[2]; pH 4.8, read-out: EC50 (50% of motile sperm immobilized within 20 seconds of contact)
  EC50: ~5 mM
[2]; pH 7.5
  EC100 (100% of motile sperm immobilized within 20 seconds of contact): ~100 mM
[2]; pH 7.5, read-out: EC50 (50% of motile sperm immobilized within 20 seconds of contact)
  EC50: 40 to 50 mM
[3]
  exposure time to permanent immobilization with complete loss of motility: less than 1 minute
[4]
  sperm mitochondrial membrane potential: inhibition of sperm mitochondrial membrane potential; also recorded: could inhibit the mitochondrial membrane potential
[5]
  histology of the vagina and uterus: no significant changes in the histology; also recorded: No discernible pathological changes were observed
[1]; HTF with 1 mM 3BP, 37° C.
  time to complete loss of sperm motility: ≤ 10 min
[1]; HTF with 1 mM compound
  development of sperm motility: almost completely blocked the development of sperm motility
[6]
  sperm ATP production: can effectively block sperm ATP production
[7]; 1 mM 3BP, murine non-activated sperm collected from the epididymis into physiological saline
  exposure time to permanent immobilization with complete loss of motility: less than 1 minute
[7]
  motility developed in HTF after exposure and washing: irreversible
[7]; listed as 3-BrPA
  motility developed in HTF after exposure and washing: No motility was developed
[7]; PBS with 1 mM compound
  motility development after short exposure and washout: permanent; also recorded: could not develop motility
[8]; Homo sapiens, Sperm, pH 5, human sperm, pH 5.0
  EC50: 14 mM
[8]; human sperm, pH 5.0
  EC100 (100% of motile sperm immobilized within 20 seconds of contact): 23 mM and ~24 mM
  EC50: ~13 mM
[8]; human sperm, pH 7.5
  EC100 (100% of motile sperm immobilized within 20 seconds of contact): ~200 mM
[9]; 37° C., swim-up sperm in HTF
  time to abolish motility of motile human sperm: 1 to 5 min
[9]; activated human sperm (HTF 30 minutes, 37° C.)
  exposure time to permanent immobilization with complete loss of motility: less than 1 minute
[10]
  time to completely abolish human sperm motility: ≤ 5 min

## Cc1ncc(C[n+]2csc(CCO)c2C)c(=O)[nH]1 [oxythiamine, reference compound]
[1]; HTF with 1 mM compound
  development of sperm motility: appeared to inhibit the development of sperm motility
[7]; PBS with 1 mM compound
  motility development after short exposure and washout: will permanently impair motility development

## CCCOC(=O)C(C)=O [propyl-pyruvate]
[1]; 37° C.
  inhibition of sperm motility in vitro: no effect on sperm motility

## O=CC[C@@H](O)[C@H](O)[C@H](O)CO [2-deoxyglucose, reference compound]
[1]; HTF with 1 mM compound
  development of sperm motility: appeared to inhibit the development of sperm motility
[7]; PBS with 1 mM compound
  motility development after short exposure and washout: will permanently impair motility development

## O=C(O)c1nn(Cc2ccc(Cl)cc2Cl)c2ccccc12 [lonidamin, reference compound]
[1]; HTF with 0.5 mM Lonidamin
  development of sperm motility: appeared to inhibit the development of sperm motility
[7]; PBS with 0.5 mM lonidamine
  motility development after short exposure and washout: will permanently impair motility development
